# Reference: patent US20200385423A1, “USE OF EXCITATORY NERVE INJURY-RELATED POLYPEPTIDE IN PREVENTING, ALLEVIATING OR TREATING PAIN” (Biocells (Beijing) Biotech Co., Ltd., priority 2016, published 2020)
# Legend:
# Format in all cases: in vivo, rat
# [1] = test system: SD rats; experiment: Hot plate experiment in rats with sciatic nerve ligation; details: for paw lifting time threshold due to heating pain at surgical side after administration: P5 0.2 μg/kg caudal vein, ibuprofen 50 mg/kg intragastric
# Protocol: Eighteen male SD rats of 240-260 g (purchased from Huafukangcheng Co., Ltd.) were selected as experimental rats, and divided into three groups with six rats in each group for a hot plate experiment, including a group administered with Polypeptide P5 at a dose of 0.2 μg/kg, a group administered with normal saline and a group administered with positive control drug (ibuprofen, 50 mg/kg). Screening was conducted before the experiment.
# (§1) 4.0 chromic catguts (purchased from Shandong Boda Medical Products Co., Ltd.) were immersed into normal saline (purchased from Shijiazhuang Four Medicine Co., Ltd., National Pharmaceutical Standard H13023200) for 30 minutes for softening. Rats were shaved in the middle of their thighs, and wiped with iodine. Wound at 1 cm below the epidermis was created with a scissor, and then a J31060 hemostat was used to tear the biceps femoris. The sciatic nerve was thus exposed at the middle of the thighs. The end proximal to the leg was the trigeminal sciatic nerve. The sciatic nerve at the middle of the thighs was gently ligated four times with the 4.0 chromic catguts. The force was deemed appropriate if muscles near the ligation site slightly trembled. The adjacent ligation sites were 1 mm apart. Then muscles and epidermal tissues were sutured separately.
# (§2) Before the experiment, the rats with successful surgery in the test group were injected via caudal vein with Peptide P5 in normal saline (dose at 0.2 μg/kg). Rats in normal saline group were intraperitoneally injected with 0.3 mL of normal saline. The positive drug group was administered via intragastric infusion with ibuprofen suspension (purchased from Shanghai Qiangsheng Pharmaceutical Co., Ltd., National Pharmaceutical Standard H19991011) at a dose of 50 mg/kg.
# Hot plate experiments were performed on rats 7 days after surgery. Rats were feed properly, and the indoor environment was maintained at about 25° C. The temperature of the YLS-6B intelligent hot plate instrument (purchased from Beijing Zhongshi Di Chuang Technology Development Co., Ltd.) was set at about 55° C. The rats were placed on the hot plate instrument in a closed, detachable, and transparent plexiglass jar, and the time of occurrence of the hind paw licking or jump reaction was recorded. If there no reaction was observed from the rats with administration 20 seconds after placement in the jar, the SD rats were taken out to avoid scalding the paws due to too long heating. The pain threshold of such rats was calculated as 20 seconds. Each rat was tested twice in succession with the interval of at least 30 seconds. The average of results was calculated.
# At the end of the experiment, the heating pain response time (i.e., pain threshold in second) of rats in the normal saline control group and individual drug-administered groups before administration and 10 min, 70 min, and 130 min after administration was recorded.
# EXCEL's T-test function (two-tailed variance) was used to analyze the statistical difference between the paw lifting time thresholds due to heating pain of pre-modeling and post-modeling experimental rats to evaluate whether or not the modeling was successful. The difference among the heating pain time thresholds before administration and at each time point after administration was then analyzed to evaluate the pharmaceutical efficacy.
# [2] = test system: SD rats; experiment: Needling experiment (vonFrey probe) in rats with sciatic nerve ligation; details: for paw lifting threshold due to needling at surgical side after administration: P5 0.2 μg/kg caudal vein, ibuprofen 50 mg/kg intragastric
# Protocol: Eighteen male SD rats of 240-260 g (purchased from Huafukangcheng Co., Ltd.) were selected as experimental rats, and divided into three groups with six rats in each group for a needling experiment, including a group administered with the polypeptide at a dose of 0.2 μg/kg, a normal saline group and a positive control drug group (ibuprofen, 50 mg/kg).
# as §1, §2
# Fourteen days after surgery, the rats in the administration groups were tested before administration and 10 min\70 min\130 min after administration. The experimental rats were placed in a plexiglass observation chamber to acclimate the environment for 5 minutes until the rats no longer looked around. The ZS-CTY foot needling system (purchased from Beijing Zhongshi Di Chuang Technology Development Co., Ltd.) was connected to a win7 32-bit computer. The test software was opened to calibrate the zero point of the instrument, and then calibrate again after a 10 g weight was added. The vonFrey probe was used to slowly and gently stimulate the middle parts of the testing hind paws of the rats to observe the paw withdrawal reaction of the rats. […] The paw withdrawal reaction of rats due to physical activity was excluded. The reaction was recorded twice at each time point, and averaged to obtain paw lifting force thresholds (in g) due to needling. The foot needling system (purchased from Beijing Zhongshi Di Chuang Technology Development Co., Ltd.; lot. number: 20160101060001) was adjusted to zero with a 10 g weight, there was still a fundamental read fluctuation when the bottom of the rats' paws was needled. The fluctuation was generally between +3 and +5 g, which should be subtracted from the final value. If there was still a baseline, it should be removed.
# EXCEL's T-test function (two-tailed variance) was used to analyze the statistical difference in paw lifting force thresholds due to needling between the untreated side and surgical side in the experimental rats to evaluate whether or not the modeling was successful. The difference among the needling pain force thresholds before administration and at each time point after administration was then analyzed to evaluate the pharmaceutical efficacy and effect duration.
# [3] = test system: rats; experiment: Acute toxicity tests on rats; details: dose of 1000 mg/kg body weight
# Protocol: Acute toxicity tests were performed on rats.
# [4] = P5 0.2 μg/kg, ibuprofen 50 mg/kg
SMILES,paw lifting time threshold due to heating pain at surgical side after administration ([1]; 10 min after administration),paw lifting time threshold due to heating pain at surgical side after administration ([1]; 70 min after administration),paw lifting time threshold due to heating pain at surgical side after administration ([1]; 130 min after administration),"duration of therapeutic (analgesic) effect, hot plate experiment [1, 4]","paw lifting time threshold due to heating pain, surgical side before administration ([1]; baseline 7 days after surgery, before administration, hot plate about 55° C.)","paw lifting time threshold due to heating pain, pre-modeling (control) ([1]; baseline of the group before modeling, hot plate about 55° C.)",paw lifting threshold due to needling at surgical side after administration ([2]; 10 min after administration),paw lifting threshold due to needling at surgical side after administration ([2]; 70 min after administration),paw lifting threshold due to needling at surgical side after administration ([2]; 130 min after administration),"duration of therapeutic (analgesic) effect, needling experiment [2, 4]","paw lifting threshold due to needling at surgical side before administration ([2]; baseline 14 days after surgery, before administration)","paw lifting threshold due to needling, healthy side (control) ([2]; healthy side of the group, control value)",acute toxicity [3]
CC(C)Cc1ccc(C(C)C(=O)O)cc1 (stereo not shown) [ibuprofen],5.74 s,4.64 s,4.19 s,< 130 min,3.95 s,12.5 s,46.24 g,36.21 g,38.88 g,< 130 min,28.72 g,73.65 g,
CC[C@H](C)[C@H](NC(=O)[C@H](CCC(=O)O)NC(=O)[C@@H](NC(=O)[C@H](CC(=O)O)NC(=O)[C@H](CC(C)C)NC(=O)[C@H](CC(C)C)NC(=O)[C@H](CCCCN)NC(=O)[C@H](CCC(=O)O)NC(=O)[C@H](Cc1ccc(O)cc1)NC(=O)[C@H](CCCNC(=N)N)NC(=O)[C@H](CCCNC(=N)N)NC(=O)[C@H](CCCNC(=N)N)NC(=O)[C@H](CCC(N)=O)NC(=O)[C@H](CCCNC(=N)N)NC(=O)[C@H](CCCNC(=N)N)NC(=O)[C@H](CCCCN)NC(=O)[C@H](CCCCN)NC(=O)[C@H](CCCNC(=N)N)NC(=O)CNC(=O)[C@@H](N)Cc1ccc(O)cc1)[C@@H](C)O)C(=O)O [Polypeptide P5],,,,,,,,,,,,,no lethal effect and other obvious toxic side effects
